According to article PMC3028519 (Toxicology and applied pharmacology, 2010):
Where two headings read alike, the source gives them in different places.

Legend:
[1] = Disposition of Hg; details: for renal burden of Hg (total renal mass): HgCl2 0.5 μmol/kg (+1.25 μmol/kg Cys) or CH3HgCl 5 μmol/kg (+12.5 μmol/kg Cys); for administered dose present in blood / renal burden of Hg: rats, strain not stated (discussion); for cortical concentration of Hg, TR− rats compared with corresponding control rats / cortical concentration of Hg, compared with rats of the same strain exposed to HgCl2 or CH3HgCl alone: renal cortex; for distribution of Hg in blood between plasma and cellular components: each group of rats
[2] = target: human MRP2 (Homo sapiens, UniProt Q92887); type: in vitro ADME; details: 37°C, inside-out Sf9 membrane vesicles
human MRP2, sequence (Q92887 whole entry): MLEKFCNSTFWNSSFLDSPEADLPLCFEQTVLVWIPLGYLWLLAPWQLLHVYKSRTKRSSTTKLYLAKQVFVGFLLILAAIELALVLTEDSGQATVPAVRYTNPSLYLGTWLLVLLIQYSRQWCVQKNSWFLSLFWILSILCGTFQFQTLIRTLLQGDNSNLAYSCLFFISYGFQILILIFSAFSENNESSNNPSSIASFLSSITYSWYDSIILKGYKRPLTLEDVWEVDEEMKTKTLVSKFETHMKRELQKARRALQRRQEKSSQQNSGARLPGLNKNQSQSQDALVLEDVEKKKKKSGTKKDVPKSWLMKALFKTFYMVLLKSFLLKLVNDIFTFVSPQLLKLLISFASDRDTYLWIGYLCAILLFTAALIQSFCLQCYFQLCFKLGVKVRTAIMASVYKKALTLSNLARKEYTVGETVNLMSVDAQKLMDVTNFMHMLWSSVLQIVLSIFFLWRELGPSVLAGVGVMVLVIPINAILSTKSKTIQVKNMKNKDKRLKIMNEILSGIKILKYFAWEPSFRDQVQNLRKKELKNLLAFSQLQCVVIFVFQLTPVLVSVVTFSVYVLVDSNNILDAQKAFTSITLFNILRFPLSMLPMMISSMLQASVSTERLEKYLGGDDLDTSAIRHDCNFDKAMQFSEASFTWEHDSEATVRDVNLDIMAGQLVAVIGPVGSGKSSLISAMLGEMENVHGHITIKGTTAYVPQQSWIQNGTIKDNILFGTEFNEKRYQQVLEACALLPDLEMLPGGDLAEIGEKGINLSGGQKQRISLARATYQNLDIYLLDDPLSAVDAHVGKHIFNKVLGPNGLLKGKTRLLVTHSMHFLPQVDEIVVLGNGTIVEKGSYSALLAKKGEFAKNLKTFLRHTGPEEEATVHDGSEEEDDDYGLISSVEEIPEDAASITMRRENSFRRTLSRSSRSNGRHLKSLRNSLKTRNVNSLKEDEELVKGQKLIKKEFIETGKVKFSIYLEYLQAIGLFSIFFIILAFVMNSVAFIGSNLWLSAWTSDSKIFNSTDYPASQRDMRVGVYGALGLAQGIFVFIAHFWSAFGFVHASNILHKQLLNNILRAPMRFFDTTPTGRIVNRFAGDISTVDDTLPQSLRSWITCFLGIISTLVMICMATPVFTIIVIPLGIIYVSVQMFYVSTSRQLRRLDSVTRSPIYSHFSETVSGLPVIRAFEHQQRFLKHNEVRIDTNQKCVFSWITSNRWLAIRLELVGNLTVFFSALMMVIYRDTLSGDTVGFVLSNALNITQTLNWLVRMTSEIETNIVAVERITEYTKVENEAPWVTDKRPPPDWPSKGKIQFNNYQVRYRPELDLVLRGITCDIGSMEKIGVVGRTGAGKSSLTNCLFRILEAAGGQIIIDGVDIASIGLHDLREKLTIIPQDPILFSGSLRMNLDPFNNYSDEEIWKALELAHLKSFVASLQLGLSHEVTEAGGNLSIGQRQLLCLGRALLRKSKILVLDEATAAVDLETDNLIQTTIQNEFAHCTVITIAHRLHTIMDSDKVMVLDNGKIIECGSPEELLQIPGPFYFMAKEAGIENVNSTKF

[3] = both control and TR− rats, 24 h, data not shown
[4] = control (Wistar) rats, i.v., 24 h

Molecule	hepatic burden of Hg ([1]; TR− rats, i.v., 24 h)	renal burden of Hg (total renal mass) ([1]; TR− rats, i.v., 24 h)	renal burden of Hg (total renal mass) [1, 4]	urinary excretion of Hg in 24 h ([1]; control rats, i.v.)	amount of Hg in blood, TR− rats compared with corresponding control rats ([1]; i.v., 24 h)	renal burden of Hg, TR− rats compared with corresponding control rats ([1]; i.v., 24 h)	administered dose present in blood ([1]; i.v., 24 h)	renal burden of Hg ([1]; i.v., 24 h)	cortical concentration of Hg, TR− rats compared with corresponding control rats ([1]; i.v., 24 h)	uptake into MRP2 vesicles compared with control vesicles ([2]; 5 μM mercuric conjugate)	concentration of Hg in the outer stripe of the outer medulla, compared with rats of the same strain exposed to HgCl2 or CH3HgCl alone ([1]; TR− rats, i.v., 24 h)	cortical concentration of Hg, compared with rats of the same strain exposed to HgCl2 or CH3HgCl alone ([1]; TR− rats, i.v., 24 h)	concentration of Hg in the outer stripe of the outer medulla, compared with rats of the same strain exposed to HgCl2 or CH3HgCl alone ([1]; control rats, i.v., 24 h)	cortical concentration of Hg, compared with rats of the same strain exposed to HgCl2 or CH3HgCl alone ([1]; control rats, i.v., 24 h)	hepatic burden of Hg ([1]; control rats, i.v., 24 h)	distribution of Hg in blood between plasma and cellular components ([1]; 24 h, data not shown)	further results
[CH3][Hg][Cl] [CH3HgCl, methylmercuric chloride]	about 14 % of the dose	approximately 5 % of the administered dose	approximately 5 % of the administered dose	approximately 0.5 % of the administered dose	did not significantly alter	No significant differences	over 40%	about 5 % of the dose	similar	–	–	–	–	–	–	–	hematological burden of Hg associated with cellular components of blood [1, 3]: approximately 99%; hematological burden of Hg present in plasma [1, 3]: ~1%; hepatic burden of Hg, TR− rats compared with corresponding control rats ([1]; i.v., 24 h): two-fold greater; urinary excretion of Hg, control rats compared with corresponding TR− rats ([1]; i.v., 24 h): not significantly different
Cysteine-S-conjugate of CH3HgCl [Cys-S-CH3Hg]	–	–	–	–	–	–	–	–	no significant difference	significantly greater in MRP2 vesicles than in control vesicles	significantly greater	significantly greater	significantly greater	significantly greater	–	–	–
[Cl][Hg][Cl] [HgCl2, mercuric chloride]	~6.5 % of the dose	60 % of the administered dose	approximately 50 % of the administered dose	approximately 4 % of the administered dose	significantly greater	significantly different than that of corresponding control (Wistar) rats	1-2%	approximately 50 % of the dose	tended to be greater	–	–	–	–	–	approximately 3.5 % of the administered dose	distributed evenly between plasma and cellular components	fecal excretion of Hg after 24 h ([1]; TR− rats, i.v.): approximately 1.5 % of the administered dose; urinary excretion of Hg in 24 h ([1]; TR− rats, i.v.): about 1.5 % of the administered dose; fecal excretion of Hg after 24 h ([1]; control rats, i.v.): approximately 3 % of the administered dose
CCCCC/C=C\C\C=C/C=C/C=C/[C@@H](SC[C@H](NC(=O)CC[C@H](N)C(=O)O)C(=O)NCC(=O)O)[C@@H](O)CCCC(=O)O [LTC4, Leukotriene C4, reference compound]	–	–	–	–	–	–	–	–	–	–	–	–	–	–	–	–	uptake into MRP2 vesicles compared with control vesicles ([2]; 50 nM LTC4, 2.5 min): significantly greater in MRP2 vesicles than in control vesicles
N[C@@H](CS)C(=O)[O-].N[C@@H](CS)C(=O)[O-].[Hg+2] [Cys-S-Hg-S-Cys, Cysteine-S-conjugate of HgCl2]	–	–	–	–	slightly, but not significantly, greater	more Hg was detected in kidneys of TR^− rats	–	~70 % of the dose	tended to be greater	significantly greater in MRP2 vesicles than in control vesicles	not significantly different	significant increase	not significantly different	significant increase	~5 % of the administered dose	distributed evenly between plasma and cellular components	fecal excretion of Hg, compared with rats of the same strain exposed to HgCl2 or CH3HgCl alone ([1]; TR− rats, i.v., 24 h): not significantly different; hematological burden of Hg, compared with rats of the same strain exposed to HgCl2 or CH3HgCl alone ([1]; TR− rats, i.v., 24 h): significantly lower; hepatic burden of Hg, compared with rats of the same strain exposed to HgCl2 or CH3HgCl alone ([1]; TR− rats, i.v., 24 h): not significantly different; renal burden of Hg, compared with rats of the same strain exposed to HgCl2 or CH3HgCl alone ([1]; TR− rats, i.v., 24 h): significantly greater than that of corresponding rats treated with HgCl2; urinary excretion of Hg, compared with rats of the same strain exposed to HgCl2 or CH3HgCl alone ([1]; TR− rats, i.v., 24 h): not significantly different; fecal excretion of Hg, compared with rats of the same strain exposed to HgCl2 or CH3HgCl alone ([1]; control rats, i.v., 24 h): significantly greater than that of corresponding rats exposed to HgCl2 alone; hepatic burden of Hg, compared with rats of the same strain exposed to HgCl2 or CH3HgCl alone ([1]; control rats, i.v., 24 h): increased significantly; renal burden of Hg, compared with rats of the same strain exposed to HgCl2 or CH3HgCl alone ([1]; control rats, i.v., 24 h): significantly greater than that of corresponding rats treated with HgCl2; urinary excretion of Hg, compared with rats of the same strain exposed to HgCl2 or CH3HgCl alone ([1]; control rats, i.v., 24 h): not significantly different
